Experimental data from patent publication US9656988B2 (Pharmacyclics LLC, priority 2013, dated 2017).
pIC50: −log10 of the molar value. Read-outs that look alike come from different tables or passages of the source.

Biological target: BTK (Homo sapiens (Human), UniProt Q06187)
Assay: Btk in vitro inhibitory activity (one of Method A TR-FRET, Method B electrophoretic mobility shift, Method C radiometric filter binding)
Assay type: biochemical
[1] = determined using one of the methods of Example 355a, 355b and 355c, read-out: BTK IC50

BTK, sequence (Q06187 whole entry): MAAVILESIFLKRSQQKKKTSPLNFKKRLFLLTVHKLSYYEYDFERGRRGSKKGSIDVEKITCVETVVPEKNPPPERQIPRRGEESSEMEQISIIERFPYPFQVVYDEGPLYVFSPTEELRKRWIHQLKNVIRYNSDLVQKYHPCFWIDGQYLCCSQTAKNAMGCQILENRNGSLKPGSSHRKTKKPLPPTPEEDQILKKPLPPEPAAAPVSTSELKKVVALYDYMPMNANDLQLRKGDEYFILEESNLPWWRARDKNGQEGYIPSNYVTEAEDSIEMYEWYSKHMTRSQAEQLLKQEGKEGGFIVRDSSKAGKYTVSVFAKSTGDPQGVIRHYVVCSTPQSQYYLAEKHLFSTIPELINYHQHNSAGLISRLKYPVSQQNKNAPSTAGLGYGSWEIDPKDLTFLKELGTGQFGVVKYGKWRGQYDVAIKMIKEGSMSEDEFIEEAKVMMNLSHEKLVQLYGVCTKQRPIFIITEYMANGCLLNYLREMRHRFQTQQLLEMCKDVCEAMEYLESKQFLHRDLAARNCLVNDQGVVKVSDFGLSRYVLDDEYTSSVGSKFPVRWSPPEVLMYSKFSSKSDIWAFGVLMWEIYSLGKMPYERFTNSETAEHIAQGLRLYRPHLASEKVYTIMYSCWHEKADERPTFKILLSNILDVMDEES

Row | pIC50 [1] | pIC50 (read-out: Btk (IC50)) | Structure (SMILES) | pIC50
1 | > 8.00 | > 8.00 | NC(=O)c1nnc(N2CCC[C@@H](NC(=O)N3CCCCC3)C2)nc1Nc1ccc(C2CCN(C3CCCC3)CC2)cc1 [Example 336, (R)-5-(4-(1-cyclopentylpiperidin-4-yl)phenylamino)-3-(3-(piperidine-1-carboxamido)piperidin-1-yl)-1,2,4-triazine-6-carboxamide] | 
2 | > 8.00 | > 8.00 | NC(=O)c1nnc(N2CCC[C@@H](NC(=O)N3CCCCC3)C2)nc1Nc1ccc(C2CCN(C=O)CC2)cc1 [Example 337, (R)-5-(4-(1-formylpiperidin-4-yl)phenylamino)-3-(3-(piperidine-1-carboxamido)piperidin-1-yl)-1,2,4-triazine-6-carboxamide] | 
3 | > 8.00 | > 8.00 | CC(=O)N1CCC(c2ccc(Nc3nc(N4CCC[C@@H](NC(=O)N5CCCCC5)C4)nnc3C(N)=O)cc2)CC1 [Example 338, (R)-5-(4-(1-acetylpiperidin-4-yl)phenylamino)-3-(3-(piperidine-1-carboxamido)piperidin-1-yl)-1,2,4-triazine-6-carboxamide] | 
4 | > 8.00 | > 8.00 | CCC(=O)N1CCC(c2ccc(Nc3nc(N4CCC[C@@H](NC(=O)N5CCCCC5)C4)nnc3C(N)=O)cc2)CC1 [Example 339, (R)-3-(3-(piperidine-1-carboxamido)piperidin-1-yl)-5-(4-(1-propionylpiperidin-4-yl)phenylamino)-1,2,4-triazine-6-carboxamide] | 
5 | > 8.00 |  | C=CC(=O)N1CCC(c2ccc(Nc3nc(N4CCC[C@@H](NC(=O)N5CCCCC5)C4)nnc3C(N)=O)cc2)CC1 [Example 340] | 
6 | 7.00 to 8.00 | 7.00 to 8.00 | CCOc1ccc(C(=O)N[C@@H]2CCCN(c3nnc(C(N)=O)c(Nc4ccc(C(=N)N(C)C)cc4)n3)C2)cc1 [Example 342, (R)-5-(4-(N,N-dimethylcarbamimidoyl)phenylamino)-3-(3-(4-ethoxybenzamido)piperidin-1-yl)-1,2,4-triazine-6-carboxamide] | 
7 | > 8.00 | > 8.00 | CCOc1ccc(C(=O)N[C@@H]2CCCN(c3nnc(C(N)=O)c(Nc4ccc(C(=N)N5CCCC5)cc4)n3)C2)cc1 [Example 343, (R)-3-(3-(4-ethoxybenzamido)piperidin-1-yl)-5-(4-(imino(pyrrolidin-1-yl)methyl)phenylamino)-1,2,4-triazine-6-carboxamide] | 
8 | 7.00 to 8.00 |  | CCOc1ccc(C(=O)N[C@@H]2CCCN(c3nnc(C(N)=O)c(Nc4ccc(C5=NCCN5C)cc4)n3)C2)cc1 [Example 344, (R)-3-(3-(4-ethoxybenzamido)piperidin-1-yl)-5-(4-(1-methyl-4,5-dihydro-1H-imidazol-2-yl)phenylamino)-1,2,4-triazine-6-carboxamide] | 
9 | 7.00 to 8.00 |  | COCCOc1ccc(Nc2nc(N3CCC[C@@H](NC(=O)N[C@@H](C)c4ccccc4)C3)cnc2C(N)=O)cc1 [Example 346, 3-(4-(2-methoxyethoxy)phenylamino)-5-((R)-3-(3-((S)-1-phenylethyl)ureido)piperidin-1-yl)pyrazine-2-carboxamide] | 
10 | 7.00 to 8.00 |  | COCCOc1ccc(Nc2nc(N3CCC[C@@H](NC(=O)N[C@H](C)c4ccccc4)C3)cnc2C(N)=O)cc1 [Example 347, 3-(4-(2-methoxyethoxy)phenylamino)-5-((R)-3-(3-((R)-1-phenylethyl)ureido)piperidin-1-yl)pyrazine-2-carboxamide] | 
11 | 7.00 to 8.00 |  | Cc1cc(Nc2nc(N[C@@H]3CCCCN(C(=O)N(C)C)C3)cnc2C(N)=O)sn1 [Example 348, (R)-3-(5-carbamoyl-6-(3-methylisothiazol-5-ylamino)pyrazin-2-ylamino)-N,N-dimethylazepane-1-carboxamide] | 
12 | 5.00 to 6.00 |  | CN(C(=O)N[C@@H]1CCCN(c2cnc(C(N)=O)c(NC3CC3)n2)C1)c1ccccc1 [Example 350, (R)-3-(cyclopropylamino)-5-(3-(3-methyl-3-phenylureido)piperidin-1-yl)pyrazine-2-carboxamide] | 
13 | 5.00 to 6.00 |  | CN(C(=O)N[C@@H]1CCCN(c2cnc(C(N)=O)c(NC3CCCC3)n2)C1)c1ccccc1 [Example 351, (R)-3-(cyclopentylamino)-5-(3-(3-methyl-3-phenylureido)piperidin-1-yl)pyrazine-2-carboxamide] | 
14 | 5.00 to 6.00 |  | CN(C(=O)N[C@@H]1CCCN(c2cnc(C(N)=O)c(NC3CC3)n2)C1)c1cc(Cl)cc(C(F)(F)F)c1 [Example 352, (R)-5-(3-(3-(3-chloro-5-(trifluoromethyl)phenyl)-3-methylureido)piperidin-1-yl)-3-(cyclopropylamino)pyrazine-2-carboxamide] | 
15 | 5.00 to 6.00 |  | CN(C(=O)N[C@@H]1CCCN(c2cnc(C(N)=O)c(NC3CCOCC3)n2)C1)c1cc(Cl)cc(C(F)(F)F)c1 [Example 353, (R)-5-(3-(3-(3-chloro-5-(trifluoromethyl)phenyl)-3-methylureido)piperidin-1-yl)-3-(tetrahydro-2H-pyran-4-ylamino)pyrazine-2-carboxamide] | 
16 | 5.00 to 6.00 |  | NC(=O)c1ncc(N2CCC[C@@H](NC(=O)NC3CCOCC3)C2)nc1NC1CCOCC1 [Example 354, (R)-5-(3-(3-(tetrahydro-2H-pyran-4-yl)ureido)piperidin-1-yl)-3-(tetrahydro-2H-pyran-4-ylamino)pyrazine-2-carboxamide] | 

Row | Structure (SMILES) | pIC50 [1] | pIC50 (read-out: Btk (IC50)) | pIC50
17 | N#CCC(=O)N1CCC(c2ccc(Nc3nc(N4CCC[C@@H](NC(=O)N5CCCCC5)C4)nnc3C(N)=O)cc2)CC1 [Example 341, (R)-5-(4-(1-(2-cyanoacetyl)piperidin-4-yl)phenylamino)-3-(3-(piperidine-1-carboxamido)piperidin-1-yl)-1,2,4-triazine-6-carboxamide] | > 8.00 |  | 7.00 to 8.00
